The record followed here is patent US10112933B2, “Methods and compositions for treatment of fibrosis” (Baylor College of Medicine, priority 2013, dated 2018).

recombinant Stat3 (binding to EGFR Y1068 phosphododecapeptide), sequence (P40763 whole entry, species assumed): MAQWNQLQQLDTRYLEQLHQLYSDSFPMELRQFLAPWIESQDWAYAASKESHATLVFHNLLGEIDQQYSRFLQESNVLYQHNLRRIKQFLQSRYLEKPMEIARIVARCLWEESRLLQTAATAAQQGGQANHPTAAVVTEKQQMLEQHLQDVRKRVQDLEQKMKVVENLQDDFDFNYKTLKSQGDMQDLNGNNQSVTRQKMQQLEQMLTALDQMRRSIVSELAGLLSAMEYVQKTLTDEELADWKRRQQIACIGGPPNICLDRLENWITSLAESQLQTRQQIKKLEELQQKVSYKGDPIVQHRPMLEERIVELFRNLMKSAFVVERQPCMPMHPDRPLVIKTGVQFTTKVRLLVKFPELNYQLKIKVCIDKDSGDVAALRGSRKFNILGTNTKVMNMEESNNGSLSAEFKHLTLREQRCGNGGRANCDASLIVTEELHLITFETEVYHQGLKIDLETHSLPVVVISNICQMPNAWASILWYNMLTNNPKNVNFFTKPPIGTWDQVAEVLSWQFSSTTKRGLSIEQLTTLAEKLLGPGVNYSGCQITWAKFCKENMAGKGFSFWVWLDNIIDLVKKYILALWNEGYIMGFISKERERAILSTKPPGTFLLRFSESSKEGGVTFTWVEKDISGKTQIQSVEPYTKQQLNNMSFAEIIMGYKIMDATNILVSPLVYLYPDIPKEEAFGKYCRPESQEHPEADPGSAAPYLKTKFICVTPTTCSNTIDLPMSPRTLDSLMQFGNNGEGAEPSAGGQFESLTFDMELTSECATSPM

In the assay the target is recombinant Stat3 (binding to EGFR Y1068 phosphododecapeptide) (Homo sapiens, UniProt P40763). In words: Stat3 SH2/pY-peptide SPR binding inhibition assay. Particulars: Stat3 500 nM, immobilized EGFR Y1068 phosphododecapeptide; read-out: SPR IC50 (competition with pY-peptide for binding to Stat3). From the text:
Data shown are representative of 2 or more experiments. The equilibrium binding levels obtained in the absence or presence of compounds were normalized (response obtained in the presence of compound÷the response obtained in the absence of compound×100), plotted against the log concentration (nM) of the compounds (panel G). The experimental points fit to a competitive binding curve that uses a four-parameter logistic equation (see exemplary methods for details). These curves were used to calculate IC50 (Table 1).
Stat3 SH2/pY-peptide binding assay. Stat3 binding assays were performed at 25° C. with a BIAcore 3000 biosensor using 20 mM Tris buffer pH 8 containing 2 mM mercaptoethanol and 5% DMSO as the running buffer (Kim et al., 2005). Phosphorylated and control non-phosphorylated biotinylated EGFR derived dodecapeptides based on the sequence surrounding Y1068 (Shao et al., 2004) were immobilized on a streptavidin coated sensor chip (BIAcore inc., Picataway N.J.). The binding of Stat3 was conducted in 20 mM Tris buffer pH 8 containing 2 mM β-mercaptoethanol at a flow rate of 10 uL/min for 1-2 minute. Aliquots of Stat3 at 500 nM were premixed with compound to achieve a final concentration of 1-1,000 uM and incubated at 4° C. prior to being injected onto the sensor chip. The chip was regenerated by injecting 10 uL of 100 mM glycine at pH 1.5 after each sample injection. A control (Stat3 with DMSO but without compound) was run at the beginning and the end of each cycle (40 sample injections) to ensure that the integrity of the sensor chip was maintained throughout the cycle run. The average of the two controls was normalized to 100% and used to evaluate the effect of each compound on Stat3 binding. Responses were normalized by dividing the value at 2 min by the response obtained in the absence of compounds at 2 min and multiplying by 100. IC50 values were determined by plotting % maximum response as a function of log concentration of compound and fitting the experimental points to a competitive binding model using a four parameter logistic equation: R=Rhigh−(Rhigh−Rlow)/(1+conc/A1)^A2, where R=percent response at inhibitor concentration, Rhigh=percent response with no compound, Rlow=percent response at highest compound concentration, A2=fitting parameter (slope) and A1=IC50 (BIAevaluation Software version 4.1).
EXP IIA. Stat3/pY-peptide SPR binding inhibition assay. Stat3 pY-peptide binding assays is performed at 25° C. using a BIAcore 3000 biosensor as described (Xu et al., 2009). Briefly, phosphorylated and control nonphosphorylated biotinylated EGFR derived dodecapeptides based on the sequence surrounding Y1068 are immobilized on a streptavidin coated sensor chip (BIAcore Inc., Piscataway N.J.). […]
As to `O=C(O)c1ccc(C=CC(=O)c2ccc3c(c2)OCCO3)cc1` [Cpd3, 4-[3-(2,3-dihydro-1,4-benzodioxin-6-yl)-3-oxo-1-propen-1-yl]benzoic acid], the concentration for half-maximal inhibition (IC50) (as a rule, the midpoint of a concentration-inhibition curve) worked out at 447 µM. For `CCOc1cc(C=C2C(=O)c3ccccc3C2=O)cc(Cl)c1OCc1cccc(C(=O)O)c1` [Cpd3-2, 3-({2-chloro-4-[(1,3-dioxo-1,3-dihydro-2H-inden-2-ylidene)methyl]-6-ethoxyphenoxy}methyl)benzoic acid], the IC50 stood at 256 µM.

For the molecule `CCN1C(=O)C(=Cc2ccc(-c3cc(C(=O)O)ccc3Cl)o2)C(=O)N(CC)C1=S` [Cpd30-12, 4-chloro-3-{5-[(1,3-diethyl-4,6-dioxo-2-thioxotetrahydro-5(2H)-pyrimidinylidene)methyl]-2-furyl}benzoic acid], the half-maximal inhibitory concentration (IC50) was determined as 114 µM.
